Counter-ions that a name gives are not always drawn.
Assays:
[1] = tested on: ovalbumin-induced constriction of respiratory tract; experiment: Respiratory tract constriction suppression action (Test Example 3); type: in vivo, Hartley guinea pigs; conditions: ovalbumin-immunized guinea pigs; test medicament via hind leg vein; 15 minutes after administration
Method: Four-week old Hartley guinea pigs (male) were immunized by intraperitoneal administration of ovalbumin (Sigma, Grade V) in amounts of 1 mg for each animal on the day on which the experiment was started, 3 mg for each animal after 2 days, and 10 mg for each animal after 4 days. Twelve to fourteen days after the final immunization, the ovalbumin-immunized guinea pigs were anesthetized by intraperitoneal administration of about 40 mg/kg of pentobarbital (Somnopentyl), and the tracheas were taken out. Subsequently, a cannula (SP-110, Natsume) was inserted into each trachea, and one end of the cannula was connected to an artificial respirator (Model-b83, Harvard). The aeration conditions were set at 6 ml per kilogram and 60 times per 1 minute. Further, a cannula for medicament administration (JMS wing needle 23G 3/4) was inserted into a hind leg vein. Myoblock (Organon Technica) was administered in an amount of 0.5 mg/kg from the cannula inserted into the hind leg vein to stop the spontaneous breathing, and after 2 or 3 minutes, 0.3 mg/kg of ovalbumin was administered to induce constriction of respiratory tract. The increase of airway resistance value 2 minutes after the induction (measurement apparatuses: pressure transducer TR-603T, respiratory amplifier AR-601G, and recorder RTA-3100, Nihon Kohden Corp.) was confirmed to be above 80 cm H2O or higher, and then, a solution of a test medicament was administered from the cannula inserted into the hind leg vein, and the airway resistance value was continuously measured for 15 minutes after the administration to determine the effect.

[2] = tested on: thoracic aorta constricted with phenylephrine; experiment: Vasoconstriction inhibitory action (Test Example 2); set-up: species or system Rats (Wistar); conditions: result in words; rat thoracic aorta, phenylephrine
Description: Rats (Wistar, 11-week old) were bleeded to death and laparotomized to take out the thoracic aorta. That aorta was cut into a ring of a length of about 3 mm in a conventional manner (Asano, T., et al., J. Pharmacol. Exp. Ther., 241, pp. 1033–1040 (1987)) and hung in 10-ml organ bath filled with Krebs-Hensright nutrient solution bubbled with a mixed gas of 95% O2 and 5% CO2. One end of the blood vessel was connected to an isometric transducer (FD Pickup TB-912T, Nihon Kohden) and applied with 2.5 g of resting tension, and constriction and relaxation reactions of the aorta were recorded. The aorta was constricted with phenylephrine (1 μM, Sigma) and then added with a test compound (1 μM), and the vasoconstriction inhibitory action thereof was observed. The vasoconstriction inhibitory actions of the test compounds are shown in Table 6 mentioned below as the relaxation ratios, which are based on the vasoconstriction with phenylephrine immediately before the addition of the test compound taken as 100%.

[3] = target: T1, myosin light chain phosphorylation enzyme (MLCK) (Gallus gallus, UniProt P11799); experiment: Action on myosin light chain phosphorylation enzyme (MLCK) activity; type: biochemical, chicken; conditions: for IC50: MLCK from chicken gizzard smooth muscle, ELISA, 100 μM ATP, read-out: Myosin light chain phosphorylation enzyme inhibitory action IC50; for inhibition of MLCK: result in words
T1 construct: purified from chicken gizzard smooth muscle by a conventional method; from tissue; host or cells: chicken gizzard smooth muscle
Method: A myosin light chain phosphorylation enzyme (MLCK) was purified from chicken gizzard smooth muscle by a conventional method (Yoshida, M., et al., J. Biochem., 99, 1027–1036 (1986)). The myosin regulatory light chain as a substrate was purified from the chicken gizzard smooth muscle by a conventional method (Grand, R. J., et al., Biochem. J., 211, 267–272 (1983)). The MLCK activity was measured by ELISA using pLC1 described in Test Example 1 (Sakurada, K., et al., J. Biochem., 115, 18–21 (1994)). The myosin regulatory light chain was diluted in phosphate-buffered saline (PBS, Sigma) to a concentration of 5.0 µg/ml, added to 96-well Immunoplate (Nunc) in a volume of 100 μl per well and left stand overnight at 4° C. Each well was washed with PBS, and 25 mM Tris/HCl buffer containing 100 μM ATP, 3 mM MgCl2, 1 mM CaCl2, 100 ng/ml of calmodulin (Sigma) and 100 ng/ml of MLCK (pH 7.4, Buffer A) was added to each well and incubated at 30° C. for 10 minutes. In a volume of 100 μl each of 20% aqueous phosphoric acid solution was added to each well to terminate the enzymatic reaction. Each well was washed with 25 mM Tris/HCl buffer (TTBS) containing 0.1% Tween 20, and then 100 μl each of pLC1 described in Test Example 1 was added to each well and incubated at room temperature for 90 minutes.
Each well was washed with TTBS, and then 100 μl of the HRP-labeled rabbit anti-mouse IgG antibodies (Bio-Rad) were added to each well and incubated at room temperature for 90 minutes. Each well was washed with TTBS, and then 25 mM citrate buffer (pH 5.0) containing orthophenylenediamine (Sigma) as a substrate of HRP and aqueous hydrogen peroxide (0.03%) was added in a volume of 100 μl per well and incubated at room temperature for 5 minutes. 50 μl of 4 N sulfuric acid was added to each well to terminate the reaction, and then absorbance was measured by using an immunoplate reader (Bio-Rad).

intraocular pressure = experiment: Intraocular pressure reducing action (Test Example 4); type: in vivo, Japanese white rabbit; conditions: for intraocular pressure reducing activity: result in words, rabbit; for inhibition in vivo at 1 %, 50 µL: Oryctolagus cuniculus, topical, 1% aqueous solution, 50 μl dropped to the left eye, after 2 hours, read-out: Intraocular pressure reducing action (reduction ratio) (%)
Method: A Japanese white rabbit having a body weight of about 2 kg was placed in a positioner and naturalized for one week before the experiment. An ophthalmologic local anesthesant (Benoxil) was administered to the left eye, and then intraocular pressure was measured by using a tonometer (Classic 30, Solan). The initial value of the intraocular pressure was measured, then 50 μl of a test compound (1% aqueous solution) was dropped to the left eye, and after 2 hours, the intraocular pressure was measured. The intraocular pressure reducing action of the test compounds is shown in Table 7 mentioned below as ratios (%) of reduction of intraocular pressure based on the initial value of the intraocular pressure.

[4] = tested on: OVA-induced respiratory tract inflammation; experiment: Respiratory tract inflammation suppressing action (Test Example 6); type: in vivo, BALB/c female mice; conditions: result in words; OVA mice
Method: According to the method described in Henderson, W. R., et al., Am. J. Respir. Cric. Care Med., 165(1), 108–116 (2002), suppressing action on bronchial inflammation was confirmed. BALB/c female mice (7-week old) were used for the test, each group consisting of 7 mice, and the control group consisting of 11 or 12 mice. The mice were intraperitoneally administered with ovalbumin (OVA, 100 ng, Sigma) and 1 mg of aluminum hydroxide for initial immunization, and after 2 weeks, they are subcutaneously administered with 10 ng of OVA as additional immunization. After further 1 week, a test compound was dissolved in water containing 0.5% carboxymethylcellulose and orally administered (30 mg/kg) to the test animals once a day for 5 days. The control group was similarly given only with water containing 0.5% carboxymethylcellulose. After 1 hour, the mice were orally inhaled with 2% OVA for 10 minutes to induce a respiratory tract inflammation. […] After 24 hours, alveoli in the lungs of the test animals were washed with physiological saline, and the total infiltrated white blood cells (WBC) were counted.

With `c1cc(NC2CCCNC2)c2ccncc2c1` (racemic) [Example 29, 3-N-(5-Isoquinolyl)aminopiperidine hydrochloride] as the compound, how does the “constriction of respiratory tract (airway resistance value)” value (“constriction of respiratory tract” below) [1] read?
The value was “significantly improved the constriction of respiratory tract”.

How did the vasoconstriction inhibitory action [2] turn out when `Cl.NCCCN(CCc1cccs1)S(=O)(=O)c1cccc2cnccc12` [Example 2, N-[(5-Isoquinolyl)sulfonyl]-N-[2-(2-thienyl)ethyl]-1,3-propylenediamine hydrochloride] was run?
Its vasoconstriction inhibitory action is “significant vasoconstriction inhibitory action”.

And the “constriction of respiratory tract” value [1]?
The value was “significantly improved the constriction of respiratory tract”.

What about the IC50 [3] of the same compound?
Its IC50 is greater than 50 µM.

For `Cl.OCCN1CCC(Nc2cccc3cnccc23)CC1` [Example 144, 1-(2-Hydroxyethyl)-4-(5-isoquinolyl)aminopiperidine hydrochloride], which “constriction of respiratory tract” value [1] is on record?
The value was “significantly improved the constriction of respiratory tract”.

What about the “intraocular pressure reducing activity” value (intraocular pressure) of the same compound?
Its value is “significant intraocular pressure reducing activity”.

And the “inhibition of MLCK” value [3]?
The value was “did not inhibit MLCK”.

With `Cc1cncc2cccc(NC3CCNCC3)c12.Cl` [Example 106, 4-(4-Methyl-5-isoquinolyl)aminopiperidine hydrochloride] as the compound, how does the vasoconstriction inhibitory action [2] read?
The vasoconstriction inhibitory action was “significant vasoconstriction inhibitory action”.

And the “constriction of respiratory tract” value [1]?
Its value is “significantly improved the constriction of respiratory tract”.

What about the inhibition in vivo at 1 %, 50 µL (intraocular pressure) of the same compound?
The inhibition in vivo at 1 %, 50 µL was 31.3%.

And the “infiltrated white blood cell number” value [4]?
Its value is “decrease of infiltrated white blood cell number”.

What about the “inhibition of MLCK” value [3] of the same compound?
The value was “did not inhibit MLCK”.

What does the source list for `Cc1cncc2cccc(NC3CCN(CCO)CC3)c12.Cl` [Example 146, 1-(2-Hydroxyethyl)-4-(4-methyl-5-isoquinolyl)aminopiperidine hydrochloride]?
vasoconstriction inhibitory action [2]: significant vasoconstriction inhibitory action; constriction of respiratory tract (airway resistance value) [1]: significantly improved the constriction of respiratory tract; intraocular pressure reducing activity (intraocular pressure): significant intraocular pressure reducing activity

Which “constriction of respiratory tract” value [1] does the source give for `Cl.Nc1nccc2c(OCC3CCCNC3)cccc12` (centres unmarked) [Example 11, 3-[(1-Amino-5-isoquinolyl)oxy]methylpiperidine hydrochloride] here?
Its value is “significantly improved the constriction of respiratory tract”.

For `Cc1cncc2cccc(N[C@H]3CC[C@H](N)CC3)c12.Cl` [Example 121, Trans-N-(4-methyl-5-isoquinolyl)-1,4-cyclohexanediamine hydrochloride], which vasoconstriction inhibitory action [2] is on record?
The vasoconstriction inhibitory action was “significant vasoconstriction inhibitory action”.

And the “constriction of respiratory tract” value [1]?
The value was “significantly improved the constriction of respiratory tract”.

And the inhibition in vivo at 1 %, 50 µL (intraocular pressure)?
Its inhibition in vivo at 1 %, 50 µL is 31.3%.

Which “constriction of respiratory tract” value [1] does the source give for `Cl.c1cc(NC2CCNCC2)c2ccncc2c1` [Example 20, 4-(5-Isoquinolyl)aminopiperidine hydrochloride] here?
The value was “significantly improved the constriction of respiratory tract”.

What about the inhibition in vivo at 1 %, 50 µL (intraocular pressure) of the same compound?
Its inhibition in vivo at 1 %, 50 µL is 35.7%.

And the IC50 [3]?
Its IC50 is greater than 100 µM.

For `Cl.Clc1cncc2cccc(NC3CCNCC3)c12` [Example 118, 4-(4-Chloro-5-isoquinolyl)aminopiperidine hydrochloride], which “constriction of respiratory tract” value [1] is on record?
The value was “significantly improved the constriction of respiratory tract”.

And the inhibition in vivo at 1 %, 50 µL (intraocular pressure)?
The inhibition in vivo at 1 %, 50 µL was 25%.

For `Cl.NCCN(CCS(=O)(=O)c1ccccc1)S(=O)(=O)c1cccc2c(O)nccc12` [Example 12, N-[(1-Hydroxy-5-isoquinolyl)sulfonyl]-N-[2-(phenylsulfonyl)ethyl]ethylenediamine hydrochloride], which vasoconstriction inhibitory action [2] is on record?
The vasoconstriction inhibitory action was “significant vasoconstriction inhibitory action”.

And the “constriction of respiratory tract” value [1]?
The value was “significantly improved the constriction of respiratory tract”.

And the inhibition in vivo at 1 %, 50 µL (intraocular pressure)?
The inhibition in vivo at 1 %, 50 µL was 13.3%.

For `Cl.N[C@H]1CC[C@H](Oc2cccc3cncc(Br)c23)CC1` [Example 133, Trans-4-[(4-bromo-5-isoquinolyl)oxy]cyclohexylamine hydrochloride], which “constriction of respiratory tract” value [1] is on record?
Its value is “significantly improved the constriction of respiratory tract”.

What about the “intraocular pressure reducing activity” value (intraocular pressure) of the same compound?
The value was “significant intraocular pressure reducing activity”.

What does the source list for `Cc1cncc2cccc(O[C@H]3CC[C@H](N)CC3)c12.Cl` [Example 140, Trans-4-[(4-methyl-5-isoquinolyl)oxy]cyclohexylamine hydrochloride]?
vasoconstriction inhibitory action [2]: significant vasoconstriction inhibitory action; constriction of respiratory tract (airway resistance value) [1]: significantly improved the constriction of respiratory tract; intraocular pressure reducing activity (intraocular pressure): significant intraocular pressure reducing activity

Reference: patent US7094789B2, “5-substituted isoquinoline derivatives” (Asahi Kasei Pharma Corporation, priority 2002, dated 2006)
